Test results taken from patent US11208412B2 (DAEGU-GYEONGBUK MEDICAL INNOVATION FOUNDATION, priority 2017, dated 2021).

Target: T1, recombinant LRRK2 kinase (Homo sapiens, UniProt Q5S007)
T1 construct: purchased Signal Chem, Richmond, BC, Canada
Assay: LRRK2 kinase inhibition (Kinase-Glo luminescence)
Assay type: biochemical
Conditions: IC50 grade; 25 μmol/L ATP, LRRKtide, 30° C. 2 hours; read-out: Enzyme activity LRRK2
Experimental: Upon completion of the reaction, an equal amount of Kinase-Glo (Promega, Madison, Wis.) solution was added thereto, followed by reaction for 40 minutes. A detection solution was added thereto, followed by further reaction at room temperature for 30 minutes. Then, IC50 of kinase was calculated by measuring the amount of luciferase using a microplate ELISA reader (Bio-Tek).

T1 sequence (Q5S007 whole entry): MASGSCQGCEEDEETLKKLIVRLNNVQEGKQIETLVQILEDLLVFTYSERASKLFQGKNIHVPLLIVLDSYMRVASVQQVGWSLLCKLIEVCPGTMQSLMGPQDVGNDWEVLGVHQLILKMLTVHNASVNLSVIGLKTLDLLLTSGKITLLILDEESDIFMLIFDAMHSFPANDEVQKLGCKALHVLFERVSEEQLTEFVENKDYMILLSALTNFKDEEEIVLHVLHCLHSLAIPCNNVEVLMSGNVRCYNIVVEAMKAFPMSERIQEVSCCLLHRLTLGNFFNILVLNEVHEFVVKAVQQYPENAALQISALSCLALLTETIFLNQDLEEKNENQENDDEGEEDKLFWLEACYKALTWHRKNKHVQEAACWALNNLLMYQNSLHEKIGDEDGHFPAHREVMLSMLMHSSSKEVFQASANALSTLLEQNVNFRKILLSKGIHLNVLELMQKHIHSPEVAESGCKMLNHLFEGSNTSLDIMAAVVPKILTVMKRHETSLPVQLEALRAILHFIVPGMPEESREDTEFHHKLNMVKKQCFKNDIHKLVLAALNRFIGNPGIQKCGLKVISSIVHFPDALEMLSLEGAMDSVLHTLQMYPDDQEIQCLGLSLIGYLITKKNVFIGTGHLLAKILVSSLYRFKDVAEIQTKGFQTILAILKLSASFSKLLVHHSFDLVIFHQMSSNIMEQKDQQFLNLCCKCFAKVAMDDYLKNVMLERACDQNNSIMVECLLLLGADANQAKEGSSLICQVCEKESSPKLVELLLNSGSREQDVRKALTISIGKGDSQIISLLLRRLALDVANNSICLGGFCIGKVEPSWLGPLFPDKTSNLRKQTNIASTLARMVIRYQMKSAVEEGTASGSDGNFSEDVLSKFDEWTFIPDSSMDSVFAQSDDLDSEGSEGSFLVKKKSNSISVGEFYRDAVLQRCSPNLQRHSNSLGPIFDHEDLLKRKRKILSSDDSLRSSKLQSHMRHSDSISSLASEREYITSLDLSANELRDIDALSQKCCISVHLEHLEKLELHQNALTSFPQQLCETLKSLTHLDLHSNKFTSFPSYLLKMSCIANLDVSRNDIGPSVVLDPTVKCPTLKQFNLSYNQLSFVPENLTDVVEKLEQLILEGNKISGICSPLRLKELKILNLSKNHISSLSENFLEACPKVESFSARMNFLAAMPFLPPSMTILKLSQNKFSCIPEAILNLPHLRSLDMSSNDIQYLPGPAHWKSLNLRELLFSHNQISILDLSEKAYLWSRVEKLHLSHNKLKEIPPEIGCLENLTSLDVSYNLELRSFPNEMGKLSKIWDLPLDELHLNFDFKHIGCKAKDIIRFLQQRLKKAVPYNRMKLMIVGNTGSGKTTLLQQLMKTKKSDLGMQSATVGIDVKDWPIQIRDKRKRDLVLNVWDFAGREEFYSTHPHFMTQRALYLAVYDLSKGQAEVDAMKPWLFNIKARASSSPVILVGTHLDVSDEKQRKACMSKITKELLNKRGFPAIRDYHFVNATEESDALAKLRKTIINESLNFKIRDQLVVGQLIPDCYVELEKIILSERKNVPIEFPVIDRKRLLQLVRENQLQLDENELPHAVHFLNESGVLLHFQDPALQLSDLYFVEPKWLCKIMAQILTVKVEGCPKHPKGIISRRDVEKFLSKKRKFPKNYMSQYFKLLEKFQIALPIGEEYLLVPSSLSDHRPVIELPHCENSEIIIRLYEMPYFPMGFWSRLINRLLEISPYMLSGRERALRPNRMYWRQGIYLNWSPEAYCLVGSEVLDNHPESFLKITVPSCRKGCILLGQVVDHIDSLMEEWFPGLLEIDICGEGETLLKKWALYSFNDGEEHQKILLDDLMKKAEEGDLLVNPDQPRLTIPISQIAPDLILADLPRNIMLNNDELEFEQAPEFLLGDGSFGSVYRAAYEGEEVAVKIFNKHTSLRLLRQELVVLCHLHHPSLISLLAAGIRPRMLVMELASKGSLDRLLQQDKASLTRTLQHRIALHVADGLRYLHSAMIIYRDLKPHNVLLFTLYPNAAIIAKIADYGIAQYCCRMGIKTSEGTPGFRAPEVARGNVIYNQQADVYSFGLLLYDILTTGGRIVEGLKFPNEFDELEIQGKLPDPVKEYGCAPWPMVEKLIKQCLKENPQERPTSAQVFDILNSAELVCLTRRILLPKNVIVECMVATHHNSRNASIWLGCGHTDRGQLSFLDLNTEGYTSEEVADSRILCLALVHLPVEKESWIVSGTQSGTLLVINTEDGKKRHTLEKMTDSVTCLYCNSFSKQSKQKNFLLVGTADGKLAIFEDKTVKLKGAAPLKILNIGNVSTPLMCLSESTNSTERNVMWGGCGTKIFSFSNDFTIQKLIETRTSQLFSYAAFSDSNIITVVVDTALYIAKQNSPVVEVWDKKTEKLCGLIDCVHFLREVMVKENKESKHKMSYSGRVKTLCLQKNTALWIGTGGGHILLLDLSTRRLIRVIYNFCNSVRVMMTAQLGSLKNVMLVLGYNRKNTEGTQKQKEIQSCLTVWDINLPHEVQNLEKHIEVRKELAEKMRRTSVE

SMILES	IC50
CCNc1nc(Nc2ccc(C(=O)N3CCOCC3)cc2OC)nc2[nH]cc(C(F)(F)F)c12 [Example 105, (4-((4-(ethylamino)-5-(trifluoromethyl)-7H-pyrrolo[2,3-d]pyrimidine-2-yl)amino)-3-methoxyphenyl)(morpholino)methanone]	10 to 100 nM
CNc1nc(Nc2cnn(CCO)c2)nc2[nH]cc(C#N)c12 [Example 69, 2-((1-(2-hydroxyethyl)-1H-pyrazole-4-yl)amino)-4-(methylamino)-7H-pyrrolo[2,3-d]pyrimidine-5-carbonitrile]	< 10 nM
CCNc1nc(Nc2cnn([C@H]3CCN(C4COC4)C[C@@H]3F)c2Cl)nc2[nH]cc(C(F)(F)F)c12 [Example 102, N^2-(5-chloro-1-((3S,4S)-3-fluoro-1-(oxetane-3-yl)piperidine-4-yl)-1H-pyrazole-4-yl)-N^4-ethyl-5-(trifluoromethyl)-7H-pyrrolo[2,3-d]pyrimidine-2,4-diamine]	10 to 100 nM
CCNc1nc(Nc2ccc(C(=O)N3CCC(F)(F)CC3)cc2OC)nc2[nH]cc(C#N)c12 [Example 27, 2-((4-(4,4-difluoropiperidine-1-carbonyl)-2-methoxyphenyl)amino)-4-(ethylamino)-7H-pyrrolo[2,3-d]pyrimidine-5-carbonitrile]	< 10 nM
COc1cc(C(=O)NC2CCN(C3COC3)CC2)c(F)cc1Nc1nc(NC2(C)CC2)c2c(C#N)c[nH]c2n1 [Example 81, 4-((5-cyano-4-((1-methylcyclopropyl)amino)-7H-pyrrolo[2,3-]pyrimidine-2-yl)amino)-2-fluoro-5-methoxy-N-(1-(oxetane-3-yl)piperidine-4-yl)benzamide]	10 to 100 nM
CNc1nc(Nc2ccc(C(=O)N3CCC(F)(F)CC3)cc2OC)nc2[nH]cc(C#N)c12 [Example 23]	< 10 nM
CCNc1nc(Nc2cc3c(cc2Cl)C(=O)N(C)C3)nc2[nH]cc(C(F)(F)F)c12 [Example 135, 6-chloro-5-((4-(ethylamino)-5-(trifluoromethyl)-7H-pyrrolo[2,3-d]pyrimidine-2-yl)amino)-2-methyl isoindolin-1-one]	> 100 nM
CCNc1nc(Nc2cnn(C(C)(C)C#N)c2Cl)nc2[nH]cc(C#N)c12 [Example 74, 2-((5-chloro-1-(2-cyanopropane-2-yl)-1H-pyrazole-4-yl)amino)-4-(ethylamino)-7H-pyrrolo[2,3-d]pyrimidine-5-carbonitrile]	< 10 nM
CCNc1nc(Nc2ncc(C(=O)N3CCOCC3)cc2OC)nc2[nH]cc(C#N)c12 [Example 48, 4-(ethylamino)-2-((3-methoxy-5-(morpholine-4-carbonyl)pyridine-2-yl)amino)-7H-pyrrolo[2,3-d]pyrimidine-5-carbonitrile]	> 100 nM
CC1(Oc2nc(Nc3cnn([C@H]4CCN(C5COC5)C[C@@H]4F)c3Cl)nc3[nH]cc(C#N)c23)CC1 [Example 96, 2-((5-chloro-1-((3S,4S)-3-fluoro-1-(oxetane-3-yl)piperidine-4-yl)-1H-pyrazole-4-yl)amino)(1-methylcyclopropoxy)-7H-pyrrolo[2,3-]pyrimidine-5-carbonitrile]	< 10 nM
CNc1nc(Nc2ccc(C(=O)N3CCOCC3)cc2OC)nc2[nH]cc(C(F)(F)F)c12 [Example 112, (3-methoxy-4-((4-(methylamino)-5-(trifluoromethyl)-7H-pyrrolo[2,3-d]pyrimidine-2-yl)amino)phenyl)(morpholino)methanone]	10 to 100 nM
CCNc1nc(Nc2ccc(C(=O)N3CCOC(C)C3)cc2OC)nc2[nH]cc(C(F)(F)F)c12 (stereo in doubt) [Example 111, (S)-(4-((4-(ethylamino)-5-(trifluoromethyl)-7H-pyrrolo[2,3-d]pyrimidine-2-yl)amino)-3-methoxyphenyl)(2-methylmorpholino)methanone]	10 to 100 nM
CNc1nc(Nc2cnn(CCOC)c2Cl)nc2[nH]cc(C#N)c12 [Example 59, 2-((5-chloro-1-(2-methoxyethyl)-1H-pyrazole-4-yl)amino)-4-(methylamino)-7H-pyrrolo[2,3-d]pyrimidine-5-carbonitrile]	< 10 nM
Cc1c(Nc2nc(NC3(C)CC3)c3c(C#N)c[nH]c3n2)cnn1C(C)C [Example 38, 2-((1-isopropyl-5-methyl-1H-pyrazole-4-yl)amino)-4-((1-methylcyclopropyl)amino)-7H-pyrrolo[2,3-d]pyrimidine-5-carbonitrile]	< 10 nM
COc1cc(C(=O)N2CCC(F)(F)CC2)ccc1Nc1nc(NC2(C)CC2)c2c(C#N)c[nH]c2n1 [Example 45, 2-((4-(4,4-difluoropiperidine-1-carbonyl)-2-methoxyphenyl)amino)-4-((1-methylcyclopropyl)amino)-7H-pyrrolo[2,3-d]pyrimidine-5-carbonitrile]	10 to 100 nM
F[C@H]1CN(C2COC2)CC[C@@H]1n1ncc(Nc2nc(OC3CCOC3)c3c(C(F)(F)F)c[nH]c3n2)c1Cl (stereo partly shown) [Example 127]	10 to 100 nM

SMILES	IC50
CNc1nc(Nc2ccc(C(=O)N3C[C@@H](C)O[C@@H](C)C3)cc2OC)nc2[nH]cc(C#N)c12 [Example 22, 2-((4-((2R,6S)-2,6-dimethylmorpholine-4-carbonyl)-2-methoxyphenyl)amino)-4-(methylamino)-7H-pyrrolo[2,3-d]pyrimidine-5-carbonitrile]	10 to 100 nM
CCCNc1nc(Nc2ccc(C(=O)N3CCC(N4CCOCC4)CC3)cc2OC)nc2[nH]cc(C#N)c12 [Example 13, 2-((2-methoxy-4-(4-morpholinopiperidine-1-carbonyl)phenyl)amino)-4-(propylamino)-7H-pyrrolo[2,3-d]pyrimidine-5-carbonitrile]	< 10 nM
COc1cc(C(=O)N2CCC(N3CCOCC3)CC2)ccc1Nc1nc(OC2CCOC2)c2c(C#N)c[nH]c2n1 (stereo not shown) [Example 87, 2-((2-methoxy-4-(4-morpholinopiperidine-1-carbonyl)phenyl)amino)-4-((tetrahydrofuran-3-yl)oxy)-7H-pyrrolo[2,3-d]pyrimidine-5-carbonitrile]	< 10 nM
COc1cc(C(=O)N2CCOCC2)ccc1Nc1nc(NC2CC2)c2c(C#N)c[nH]c2n1 [Example 16, 4-(cyclopropylamino)-2-((2-methoxy-4-(morpholine-4-carbonyl)phenyl)amino)-7H-pyrrolo[2,3-d]pyrimidine-5-carbonitrile]	< 10 nM
CCNc1nc(Nc2cnn(C)c2)nc2[nH]cc(C#N)c12 [Example 4, 4-(ethylamino)-2-((1-methyl-1H-pyrazole-4-yl)amino)-7H-pyrrolo[2,3-d]pyrimidine-5-carbonitrile]	< 10 nM
CCNc1nc(Nc2cc(F)c(C(=O)NC3CCN(C(C)C)CC3)cc2OC)nc2[nH]cc(C#N)c12 [Example 68, 4-((5-cyano-4-(ethylamino)-7H-pyrrolo[2,3-d]pyrimidine-2-yl)amino)-2-fluoro-N-(1-isopropylpiperidine-4-yl)-5-methoxybenzamide]	< 10 nM
F[C@H]1CN(C2COC2)CC[C@@H]1n1ncc(Nc2nc(NC3CC3)c3c(C(F)(F)F)c[nH]c3n2)c1Cl [Example 117, N^2-(5-chloro-1-((3S,4S)-3-fluoro-1-(oxetane-3-yl)piperidine-4-yl)-1H-pyrazole-4-yl)-N^4-cyclopropyl-5-(trifluoromethyl)-7H-pyrrolo[2,3-d]pyrimidine-2,4-diamine]	10 to 100 nM
Cc1c(Nc2nc(NC3(C)CC3)c3c(C#N)c[nH]c3n2)cnn1C [Example 41, 2-((1,5-dimethyl-1H-pyrazole-4-yl)amino)-4-((1-methylcyclopropyl)amino)-7H-pyrrolo[2,3-d]pyrimidine-5-carbonitrile]	< 10 nM
CCNc1nc(Nc2ccc(C(=O)N3CCN(C4COC4)CC3)cc2OC)nc2[nH]cc(C#N)c12 [Example 58, 4-(ethylamino)-2-((2-methoxy-4-(4-(oxetane-3-yl)piperazine-1-carbonyl)phenyl)amino)-7H-pyrrolo[2,3-d]pyrimidine-5-carbonitrile]	< 10 nM
CCNc1nc(Nc2cc(F)c(C(=O)N3CCN(C)C[C@H]3C)cc2OC)nc2[nH]cc(C#N)c12 [Example 79, (R)-2-((4-(2,4-dimethylpiperazine-1-carbonyl)-5-fluoro-2-methoxyphenyl)amino)-4-(ethylamino)-7H-pyrrolo[2,3-d]pyrimidine-5-carbonitrile]	< 10 nM
CNc1nc(Nc2cn(C(C)C)nc2C)nc2[nH]cc(C#N)c12 [Example 30, 6-((1-isopropyl-3-methyl-1H-pyrazole-4-yl)amino)-4-(methylamino)-1H-pyrrolo[2,3-b]pyrimidine-3-carbonitrile]	10 to 100 nM
CCNc1nc(Nc2ccc(C(=O)N3CCN(C)CC3)cc2OC)nc2[nH]cc(C(F)(F)F)c12 [Example 107, (4-((4-(ethylamino)-5-(trifluoromethyl)-7H-pyrrolo[2,3-d]pyrimidine-2-yl)amino)-3-methoxyphenyl)(4-methylpiperazine-1-yl)methanone]	< 10 nM
COc1cc(C(=O)N2CCOCC2)ccc1Nc1nc(OC2CCOC2)c2c(C#N)c[nH]c2n1 (stereo not shown) [Example 86, 2-((2-methoxy-4-(morpholine-4-carbonyl)phenyl)amino)-4-((tetrahydrofuran-3-yl)oxy)-7H-pyrrolo[2,3-d]pyrimidine-5-carbonitrile]	< 10 nM
CNc1nc(Nc2cc(F)c(C(=O)N3CCN(C)C[C@H]3C)cc2OC)nc2[nH]cc(C#N)c12 [Example 80, (R)-2-((4-(2,4-dimethylpiperazine-1-carbonyl)-5-fluoro-2-methoxyphenyl)amino)-4-(methylamino)-7H-pyrrolo[2,3-d]pyrimidine-5-carbonitrile]	10 to 100 nM
COc1cc(C(=O)N2C[C@@H](C)O[C@@H](C)C2)ccc1Nc1nc(NC2(C)CC2)c2c(C#N)c[nH]c2n1 [Example 44, 2-((4-((2R,6S)-2,6-dimethylmorpholine-4-carbonyl)-2-methoxyphenyl)amino)-4-((1-methylcyclopropyl)amino)-7H-pyrrolo[2,3-d]pyrimidine-5-carbonitrile]	10 to 100 nM
